The subject of one assay is Gerbillinae. Briefly: Compound was evaluated for gerbil colon contraction relative to PGF2-alpha. Format: functional.
The test system of another assay is Cricetinae gen. sp. Nature of the assay: Compound was evaluated for uterine contraction relative to PGF2-alpha in hamsters. Format: functional, hamster.

Each structure is given as a SMILES string.

For the molecule `CCCCC[C@H](O)CC[C@@]1(F)[C@H](O)C[C@H](O)[C@@H]1C/C=C\CCCC(=O)OC`, the Potency was determined as 0.004 in the assay on Gerbillinae and 0.016 in the assay with Cricetinae gen. sp..
On the same counts, the results for `CCCCC[C@@H](O)CC[C@@]1(F)[C@H](O)C[C@H](O)[C@@H]1C/C=C\CCCC(=O)OC` are 0.001 and 0.005.
On the same counts, the results for `CCCCC[C@H](O)CC[C@@H]1[C@@H](C/C=C\CCCC(=O)OC)[C@@H](O)C[C@H]1O` are 0.11 and 0.95.
For `CCCCC[C@H](O)/C=C/[C@@]1(F)[C@H](O)C[C@H](O)[C@@H]1C/C=C\CCCC(=O)OC`, in that order: 0.001 and 0.28.
For the molecule `CCCCC[C@@H](O)/C=C/[C@@]1(F)[C@H](O)C[C@H](O)[C@@H]1C/C=C\CCCC(=O)OC`, the Potency in the assay on Gerbillinae amounted to 0.011; in the assay on Cricetinae gen. sp., 0.022.
On the same counts, the results for `CCCCC[C@H](O)/C=C/[C@@H]1[C@@H](C/C=C\CCCC(=O)O)[C@@H](O)C[C@H]1O` [DINOPROST] are 1 and 1.

These data come from ChEMBL document CHEMBL1121920, “Synthesis and biological evaluation of the methyl esters of (+)-12-fluoro-13,14-dihydroprostaglandin F2alpha and (+)-15-epi-12-fluoro-13,14-dihydroprostaglandin F2alpha” (1981).
